Data on 11 molecules can be found in ChEMBL document CHEMBL1201862, “PubChem BioAssay data set” (2004).

Some test systems named below: CCRF-CEM; COLO 205; HOP-92; K562; MOLT-4; NCI-H226; NCI-H23; OVCAR-3; OVCAR-4; RPMI-8226; SF-268; SK-MEL-28; SK-MEL-2; SK-OV-3; SN12C; SW-620; TK-10; UO-31; MDA-MB-231.
Common to all, as to assay: NCI-60 cell line screen, 48 h

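Step 1: Grow cells in 96-well plates. Step 2: Expose to compound for 48 hours at 5 concentrations. Step 3: Interpolate endpoints linearly; if unreached, use highest concentration. GI50 is the concentration that inhibits growth by half.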 Active and inactive are the calls of the source. Cut-off read from the data, not from the text of the source: active = GI50 up to about 1.1 µM and inactive = higher.

For the molecule `COC(=O)c1oc([N+](=O)[O-])c(-c2ccccc2)c1-c1ccccc1`, the GI50 is 67.9 µM (inactive) in the experiment with CCRF-CEM; 37.7 µM (inactive) in the experiment on COLO 205; > 100 µM (inactive) with HOP-92; > 100 µM (inactive) with K562; 33.6 µM (inactive) in the experiment on MOLT-4; > 100 µM (inactive) in the experiment on NCI-H226. The GI50 in the experiment on NCI-H23, with OVCAR-3, in the experiment on OVCAR-4, with RPMI-8226, in the experiment on SF-268 and with SK-MEL-28 was > 100 µM (inactive) each time. Besides, the GI50 in the experiment on SK-MEL-2, with SK-OV-3, with SN12C, with SW-620, in the experiment with TK-10 and with UO-31 was > 100 µM (inactive) in each case.

`CCOC(=O)c1csc(CCCCCCc2nc(C(=O)OCC)cs2)n1`: the GI50 in the experiment on CCRF-CEM is > 42.3 µM (inactive); with COLO 205, > 52.6 µM (inactive); in the experiment on HOP-92, > 58.2 µM (inactive); in the experiment on K562 it was > 40.1 µM (inactive); with MOLT-4, > 75 µM (inactive); in the experiment on NCI-H226, 44.9 µM (inactive). Further, the GI50 in the experiment on NCI-H23 was 43.2 µM (inactive); with OVCAR-3, 99.5 µM (inactive); in the experiment with OVCAR-4, > 100 µM (inactive); with RPMI-8226, > 48.8 µM (inactive); in the experiment with SF-268 it was 34 µM (inactive); in the experiment with SK-MEL-28 it was > 38.3 µM (inactive). For the same molecule, the GI50 with SK-MEL-2 is 97.5 µM (inactive); in the experiment with SK-OV-3 it was > 65.5 µM (inactive); with SN12C, > 82.6 µM (inactive); with SW-620, > 41.7 µM (inactive); with TK-10, > 92.5 µM (inactive); in the experiment on UO-31 it was > 100 µM (inactive).

Turning to `O=C1C2=C(c3ccccc31)C(c1ccccc1Cl)NC(S)=N2` (stereo not given), the GI50 in the experiment on CCRF-CEM was 48.2 µM (inactive); in the experiment on COLO 205, 69.3 µM (inactive); in the experiment on HOP-92, 16.5 µM (inactive); in the experiment on K562, 49.2 µM (inactive); with MOLT-4 it was 31.8 µM (inactive); with NCI-H226, 8.65 µM (inactive). In addition, the GI50 in the experiment with NCI-H23 is 39.4 µM (inactive); with OVCAR-3 it was 38.1 µM (inactive); in the experiment with OVCAR-4, 35.6 µM (inactive); in the experiment on RPMI-8226, 37.4 µM (inactive); with SF-268, 51.5 µM (inactive); in the experiment on SK-MEL-28, 55.5 µM (inactive). Also, the GI50 with SK-MEL-2 was 29.1 µM (inactive); in the experiment with SK-OV-3 it was > 100 µM (inactive); in the experiment with SN12C, 41.3 µM (inactive); with SW-620 it was 74.5 µM (inactive); in the experiment with TK-10, 75.2 µM (inactive); in the experiment on UO-31 it was 30.6 µM (inactive).

Take `C[C@H]1[C@H](N2CCCC2)O[Si](C(C)(C)C)(C(C)(C)C)[C@@H]1C`: the GI50 with CCRF-CEM is 36.2 µM (inactive); in the experiment on COLO 205, > 100 µM (inactive); with HOP-92 it was < 0.01 µM (active); with K562, 97.3 µM (inactive); with MDA-MB-231, > 100 µM (inactive); in the experiment with MOLT-4, > 100 µM (inactive). Also, the GI50 in the experiment on NCI-H226, in the experiment on NCI-H23, in the experiment on OVCAR-3, in the experiment on OVCAR-4, in the experiment with RPMI-8226 and in the experiment with SK-MEL-28 was > 100 µM (inactive) each time. Also, the GI50 with SK-MEL-2, with SK-OV-3, in the experiment on SN12C, in the experiment on SW-620, in the experiment with TK-10 and in the experiment on UO-31 was > 100 µM (inactive) throughout.

On to `Cc1ccc(-c2c(C#N)c(-c3ccc(Cl)cc3)c(C#N)c(=O)n2NS(=O)(=O)c2ccccc2)cc1`, for which the GI50 was 34.4 µM (inactive) in the experiment with CCRF-CEM; > 100 µM (inactive) in the experiment with COLO 205; 25.2 µM (inactive) in the experiment on HOP-92; 88.1 µM (inactive) in the experiment with K562; > 100 µM (inactive) in the experiment with MDA-MB-231; 55.2 µM (inactive) in the experiment on MOLT-4. Also, the GI50 in the experiment with NCI-H226 was 77.3 µM (inactive); in the experiment on OVCAR-4, 37.2 µM (inactive); with RPMI-8226, 18.4 µM (inactive); in the experiment on SF-268 it was 67 µM (inactive); in the experiment on SK-MEL-28 it was > 100 µM (inactive); in the experiment on SK-MEL-2, 25.7 µM (inactive). Further, the GI50 in the experiment on SK-OV-3 is > 100 µM (inactive); with SN12C, 95.1 µM (inactive); in the experiment with SW-620, > 100 µM (inactive); in the experiment on TK-10, 74.3 µM (inactive).

Consider `CN(C)C(=S)/N=c1\ss/c(=N\C(=S)N(C)C)n1-c1ccc(Cl)cc1`, for which the GI50 with CCRF-CEM, in the experiment with COLO 205, in the experiment on HOP-92, in the experiment with K562, in the experiment with MOLT-4 and in the experiment on NCI-H226 was > 100 µM (inactive) each time. For the same molecule, the GI50 with NCI-H23 is > 100 µM (inactive); in the experiment on OVCAR-3, > 100 µM (inactive); in the experiment with OVCAR-4, > 10 µM (inactive); in the experiment on RPMI-8226, > 100 µM (inactive); in the experiment on SF-268, > 100 µM (inactive); in the experiment on SK-MEL-28, > 100 µM (inactive). Also, the GI50 in the experiment with SK-MEL-2, in the experiment on SK-OV-3, with SN12C, with SW-620, with TK-10 and in the experiment on UO-31 was > 100 µM (inactive) throughout.

Regarding `CC(=O)Nc1ccc(C2C(C(=O)Nc3ccccc3)=C(C)NC(C)=C2C(=O)Nc2ccccc2)cc1`, the GI50 is 35.2 µM (inactive) with CCRF-CEM; > 100 µM (inactive) in the experiment on COLO 205; > 100 µM (inactive) in the experiment with HOP-92; > 100 µM (inactive) in the experiment with K562; > 100 µM (inactive) in the experiment on MOLT-4; > 100 µM (inactive) with NCI-H226. The GI50 in the experiment on NCI-H23, with OVCAR-3, with OVCAR-4, with RPMI-8226, in the experiment with SF-268 and in the experiment on SK-MEL-28 was > 100 µM (inactive) each time. Also, the GI50 in the experiment on SK-MEL-2 is > 100 µM (inactive); in the experiment on SK-OV-3, > 100 µM (inactive); in the experiment with SN12C, > 100 µM (inactive); in the experiment on SW-620, 98.4 µM (inactive); in the experiment with TK-10, > 100 µM (inactive); with UO-31, > 100 µM (inactive).

`CNc1ccc(/C=C2\C=Cc3ccccc32)cc1`: the GI50 in the experiment with CCRF-CEM was 43.4 µM (inactive); in the experiment on COLO 205, 18.4 µM (inactive); in the experiment with HOP-92, 19.1 µM (inactive); with K562, 32 µM (inactive); in the experiment on MOLT-4, 41.9 µM (inactive); in the experiment on NCI-H226, 25.1 µM (inactive). The GI50 with NCI-H23 was 16.7 µM (inactive); in the experiment with OVCAR-3 it was 21.2 µM (inactive); with OVCAR-4, 26.8 µM (inactive); in the experiment on RPMI-8226, 54.3 µM (inactive); in the experiment with SF-268 it was 5.55 µM (inactive); with SK-MEL-28, 88.5 µM (inactive). Moreover, the GI50 in the experiment on SK-MEL-2 is 18.8 µM (inactive); with SK-OV-3, 26.5 µM (inactive); with SN12C, 29.9 µM (inactive); in the experiment on SW-620 it was 33.1 µM (inactive); with TK-10 it was 23.9 µM (inactive); in the experiment with UO-31, 10.2 µM (inactive).

Take `CC1=CC(=O)C(C)(C2=NC(C)(C)CO2)c2ccccc21` (stereo not given): the GI50 in the experiment on CCRF-CEM, in the experiment on COLO 205, in the experiment with HOP-92, in the experiment with K562, in the experiment on MOLT-4 and with NCI-H226 was > 100 µM (inactive) each time. Moreover, the GI50 in the experiment with NCI-H23, in the experiment with OVCAR-3, in the experiment with OVCAR-4, in the experiment with RPMI-8226, in the experiment on SF-268 and in the experiment with SK-MEL-28 was > 100 µM (inactive) each time. For the same molecule, the GI50 in the experiment with SK-MEL-2, in the experiment on SK-OV-3, in the experiment on SN12C, in the experiment with SW-620, in the experiment on TK-10 and in the experiment on UO-31 was > 100 µM (inactive) each time.

With `O=C1C2C(C(=O)N1c1ccccc1)C1c3ccccc3C2C2C(=O)N(c3ccccc3)C(=O)C21` (stereo not given), the GI50 is 4.9 µM (inactive) with CCRF-CEM; 3.89 µM (inactive) with COLO 205; 6.82 µM (inactive) in the experiment with HOP-92; 3.42 µM (inactive) in the experiment on K562; 20.7 µM (inactive) in the experiment on MOLT-4; 28.6 µM (inactive) in the experiment with NCI-H226. The GI50 with NCI-H23 is 18.5 µM (inactive); with OVCAR-3, 20.7 µM (inactive); in the experiment with OVCAR-4, 22.8 µM (inactive); in the experiment with RPMI-8226 it was 4.39 µM (inactive); in the experiment on SF-268 it was 5.56 µM (inactive); with SK-MEL-28, 26.2 µM (inactive). For the same molecule, the GI50 with SK-MEL-2 is 2.54 µM (inactive); in the experiment with SK-OV-3 it was 8.22 µM (inactive); in the experiment with SN12C it was 5.48 µM (inactive); in the experiment on SW-620 it was 6.12 µM (inactive); in the experiment on TK-10, > 100 µM (inactive); in the experiment with UO-31, 12.7 µM (inactive).

Consider `N#CCC(=O)N/N=C(\C(=O)Nc1ccc(Cl)c(Cl)c1)C1CN(c2ccccc2)N=C1N` (stereo not given), for which the GI50 is 54 µM (inactive) in the experiment with CCRF-CEM; > 100 µM (inactive) with COLO 205; > 100 µM (inactive) in the experiment on HOP-92; > 100 µM (inactive) in the experiment on K562; 49.8 µM (inactive) with MOLT-4; > 100 µM (inactive) in the experiment on NCI-H226. Besides, the GI50 with NCI-H23, with OVCAR-3, with OVCAR-4, with RPMI-8226, in the experiment on SF-268 and with SK-MEL-28 was > 100 µM (inactive) in each case. In addition, the GI50 in the experiment on SK-MEL-2, with SK-OV-3, in the experiment with SN12C, in the experiment with TK-10 and in the experiment with UO-31 was > 100 µM (inactive) each time.
